Paper PMC6268294, “Synthesis of Chalcones with Anticancer Activities” (Molecules, 2012)
Values after ≈ are worked out from the molar mass of the structure shown. Like-named read-outs stand apart in the source and are kept apart here.

What was measured:
[1] = system: human prostate cancer cell line PC3; experiment: MTT cell viability assay, PC3; assay type: cell-based; conditions: 24 h treatment
Description: (§1) A549, PC3, MCF-7, HT-29, WRL68 and MCF-7 cells were obtained from the ATTC (Rockville, MD, USA) and grown in RPMI-1640 medium, 10% fetal bovine serum (FBS) and 1% pen-strep, in humidified conditions at 5% CO2 and 37 °C. The different cell lines mentioned above were used to determine the inhibitory effects of compounds on cell growth using the MTT assay. This colorimetric assay is based on the conversion of the yellow tetrazolium bromide (MTT) to a purple formazan derivative by mitochondrial succinate dehydrogenase in viable cells. Cells were seeded in 96-well plate and incubated for 24 h at 37 °C with 5% CO2 saturation. After incubation, the cells were treated with different concentration of compounds and incubated for another 24 h. After 24 h of drug treatment, 20 µL of MTT solution at 5 mg/mL was added and incubated for 4 h. Dimethyl sulfoxide (DMSO) in volume of 100 µL is added into each well to dissolve the purple formazan formed. The colorimetric assay is measured and recorded at absorbance of 570 nm.

[2] = system: MCF-7 cells; experiment: Multiparametric high content screening (HCS) cytotoxicity/apoptosis assay; assay type: cell-based, human; conditions: for cell (membrane) permeability / cytochrome c release / mitochondrial membrane potential / total nuclear intensity (Hoechst 33342 nuclear chromatin staining) / cell loss: MCF-7, compounds 2-6 µg/mL; for cell (membrane) permeability / cytochrome c release / mitochondrial membrane potential / total nuclear intensity (Hoechst 33342 nuclear chromatin staining): tamoxifen 0.04 µg/mL, vs control; for cell loss: data not shown; for apoptosis in MCF-7 cells: shown by multiparameter cytotoxicity assay and caspase-3/7, -8, -9 activities, p < 0.05
[3] = system: human breast adenocarcinoma cell line MCF-7; experiment: MTT cell viability assay, MCF-7; assay type: cell-based; conditions: MCF7, 24 h treatment
Description: as §1

[4] = system: MCF-7 (breast), A549 (lung), PC3 (prostate), HT-29 (colorectal) and WRL68 (liver); experiment: MTT assay, summary over all five cell lines; assay type: cell-based, human; conditions: for IC50: Homo sapiens, all five cell lines, read-out: IC50 in all cell lines
Description: as §1

[5] = system: human adenocarcinoma cell line HT-29 (colorectal cancer); experiment: MTT cell viability assay, HT-29; assay type: cell-based; conditions: 24 h treatment
Description: as §1

[6] = system: caspase-3/7 in MCF-7 cells; experiment: Caspase-Glo-3/7 activity; assay type: cell-based, human; conditions: MCF-7, 24 h, highest concentration (6 µg/mL for 1); control 30,140 RLU
Description: (§2) Due to the observation of significant cytotoxicity of selected compounds towards MCF-7 cells, the following analyses were done on them only. Cells were treated with compound 1 (1A- 3 µg/mL; 1B- 6 µg/mL), 23 (23A- 3 µg/mL; 23B- 6 µg/mL), 25 (25A- 2 µg/mL; 25B- 4 µg/mL) and 5 (5A- 3 µg/mL; 5B- 6 µg/mL).
(§3) Activity of cellular caspases was measured using the Caspase-Glo-9, Caspase-Glo-3/7 and Caspase-Glo-8 assay reagents (Promega), according to the manufacturer's instructions. The assays provide a luminogenic caspase-3/caspase-7 or caspase-8 or caspase-9 substrate, respectively, in a buffer system optimized for caspase activity measurement in cell lysates. The luciferase signal generated is proportional to the amount of caspase activity present. MCF-7 cells have no caspase-3 activity due to functional deletion of the CASP-3 gene. Therefore, the activity measured in this test is that of caspase-7. Briefly, cells were plated in opaque 96-well plates in triplicate and treated with […]. After 24 h treatment with compounds 1, 23, 25 and 5 as mentioned before, the assay reagents were added to the plates at room temperature and incubated for 60 min, and the luminescence was measured using a plate reader. All assays were done in triplicate, and means ± SD were calculated for each condition.

[7] = system: human normal liver cell line WRL-68; experiment: MTT cell viability assay, WRL68; assay type: cell-based; conditions: 24 h treatment
Description: as §1

[8] = system: human lung adenocarcinoma cell line A549; experiment: MTT cell viability assay, A549; assay type: cell-based; conditions: 24 h treatment
Description: as §1

[9] = system: ROS in MCF-7 cells; experiment: Intracellular ROS level (DCFDA); assay type: cell-based, human; conditions: MCF-7, 24 h, high concentration (6 µg/mL; 25: 4 µg/mL), vs untreated control, p < 0.05
Description: as §2
The production of ROS was estimated by fluorescence using the redox-sensitive fluorescent probe DCFDA (Sigma). The oxidation of DCFDA by ROS converts the molecule to 2′,7′-dichlorodihydrofluorescein (DCF), which is highly fluorescent. Thus, ROS production by stimulated cells causes an increase in the fluorescence signal over time. ROS assays were performed as previously described (13). Briefly, the MCF-7 cells were seeded in 96-well plates (5 × 10^4 cells/well) and allowed to attach for 24 h. After 24 h treatment with compounds 1, 23, 25 and 5 as mentioned before, the cells were washed three times with PBS and incubated for 60 min with […] DCFDA at room temperature. Again the wells were washed with PBS. Fresh PBS was added (100 μL/well) and DCF fluorescence was detected using a Tecan Infinite M200 fluorescence microplate reader at excitation and emission wavelengths of 485 and 528 nm, respectively. The fluorescence intensity unit of treatments was compared with control.

[10] = system: caspase-8 in MCF-7 cells; experiment: Caspase-Glo-8 activity; assay type: cell-based, human; conditions: MCF-7, 24 h, highest concentrations (6 µg/mL; 25: 4 µg/mL); control printed 50892 RLU; p < 0.05
Description: as §2, §3

| IC50 [1] | IC50 [3] | IC50 ([4]; MTT) | IC50 [5] | IC50 [8] | melting point | Structure (SMILES) | cell (membrane) permeability [2] | cytochrome c release [2] | mitochondrial membrane potential [2] | total nuclear intensity (Hoechst 33342 nuclear chromatin staining) [2] | cell loss [2] | apoptosis in MCF-7 cells [2] | cytotoxic effect in words ([4]; all cell lines, MTT) | caspase-3/7 activity at highest concentration [6] | IC50 [7] | cytotoxic effect in words [4] | ROS increase at high concentration [9] | caspase-8 activity at highest concentration [10] |
| --- | --- | --- | --- | --- | --- | --- | --- | --- | --- | --- | --- | --- | --- | --- | --- | --- | --- | --- |
| 9.11 ± 0.9 µg/mL (≈ 43.7 µM) | 6.88 ± 0.219 µg/mL (≈ 33 µM) | < 20 µg/mL | 10.1 ± 1.01 µg/mL (≈ 48.5 µM) | 16.8 ± 1.08 µg/mL (≈ 80.5 µM) |  | O=C(/C=C/c1ccccc1)c1ccccc1 [Compound 1, 1,3-Diphenylpropenone] | increased cell permeability | cytochrome c release from mitochondria | loss of mitochondrial membrane potential | increased total nuclear intensity | statistically significant cell loss | capable in eliciting apoptosis | high cytotoxicity | 210430 RLU | 10.6 ± 0.89 µg/mL (≈ 50.7 µM) |  |  |  |
| 13.8 ± 1.2 µg/mL (≈ 57 µM) | 7.99 ± 0.81 µg/mL (≈ 32.9 µM) | < 20 µg/mL | 13.2 ± 1.2 µg/mL (≈ 54.6 µM) | 19.9 ± 1.66 µg/mL (≈ 82.2 µM) | 53 to 54 °C | O=C(/C=C/c1ccccc1Cl)c1ccccc1 [Compound 5, 3-(2-Chlorophenyl)-1-phenylpropenone] | increased cell permeability | cytochrome c release from mitochondria | loss of mitochondrial membrane potential | increased total nuclear intensity | statistically significant cell loss | capable in eliciting apoptosis |  |  | 11.5 ± 1.1 µg/mL (≈ 47.2 µM) | high cytotoxicity | 2.7 fold |  |
| 9.49 ± 0.7 µg/mL (≈ 39.8 µM) | 6.87 ± 1.2 µg/mL (≈ 28.8 µM) | < 20 µg/mL | 13 ± 0.54 µg/mL (≈ 54.5 µM) | 16.8 ± 1.76 µg/mL (≈ 70.5 µM) | 165 to 167 °C | Cc1ccc(C(=O)/C=C/c2ccccc2O)cc1 [Compound 23, 3-(2-Hydroxyphenyl)-1-p-tolylpropenone] | increased cell permeability | cytochrome c release from mitochondria | loss of mitochondrial membrane potential | increased total nuclear intensity | statistically significant cell loss | capable in eliciting apoptosis |  |  | 9.53 ± 1.5 µg/mL (≈ 40 µM) | high cytotoxicity |  | 18,342 RLU |
